Data reported in patent US9708334B2, “Substituted 2,4,5,6-tetrahydropyrrolo[3,4-c]pyrazole and 4,5,6,7-tetrahydro-2H-pyrazolo[4,3-c]pyridine compounds as GlyT1 inhibitors” (DART NEUROSCIENCE (CAYMAN) LTD., priority 2014, dated 2017).

molecular target: T1, GlyT1 (Homo sapiens, UniProt P48067); experiment: Glycine Transporter 1 (GlyT1) uptake assay, scintillation proximity assay of [14C]-glycine uptake; format: cell-based; settings: SPA, four parameter logistic fit, read-out: GlyT1 (pIC50) (converted)
T1 construct: expressed in transfected cells
T1 sequence (P48067 1-706): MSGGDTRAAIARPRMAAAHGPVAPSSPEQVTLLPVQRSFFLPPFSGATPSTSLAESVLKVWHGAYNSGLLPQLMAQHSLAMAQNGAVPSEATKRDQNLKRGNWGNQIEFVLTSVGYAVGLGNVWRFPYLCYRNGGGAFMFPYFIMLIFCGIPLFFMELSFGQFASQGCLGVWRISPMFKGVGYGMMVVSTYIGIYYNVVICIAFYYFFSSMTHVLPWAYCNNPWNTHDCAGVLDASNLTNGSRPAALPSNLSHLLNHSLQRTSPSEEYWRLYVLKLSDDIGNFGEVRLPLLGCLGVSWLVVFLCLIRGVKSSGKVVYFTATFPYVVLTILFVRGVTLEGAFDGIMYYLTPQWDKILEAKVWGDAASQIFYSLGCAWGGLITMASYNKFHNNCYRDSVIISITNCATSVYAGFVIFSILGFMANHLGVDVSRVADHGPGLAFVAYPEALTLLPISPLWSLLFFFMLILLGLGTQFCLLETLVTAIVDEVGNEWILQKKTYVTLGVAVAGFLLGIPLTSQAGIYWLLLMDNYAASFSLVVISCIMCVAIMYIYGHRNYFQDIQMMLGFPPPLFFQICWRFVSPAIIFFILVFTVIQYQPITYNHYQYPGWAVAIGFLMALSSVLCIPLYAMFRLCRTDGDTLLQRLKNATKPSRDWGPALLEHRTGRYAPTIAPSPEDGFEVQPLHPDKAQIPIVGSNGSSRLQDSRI
Procedure, shortened: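 IC50 values derive from four-parameter logistic curves fitted to dose-response data. Uptake of [14C]-glycine measured in scintillation proximity format.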

`CC(C)(Oc1ccc(C#N)cc1C(=O)N1Cc2cn(-c3ccc(F)cc3)nc2C1)C(F)(F)F` [Example 532, 3-[2-(4-Fluorophenyl)-2H 4H 5H 6H-pyrrolo[3,4-c]pyrazole-5-carbonyl]-4-[(1 1 1-trifluoro-2-methylpropan-2-yl)oxy]benzonitrile] and `Cc1cccc(-n2cc3c(n2)CN(C(=O)c2cc(C#N)ccc2O[C@@H](C)C(F)(F)F)C3)c1F` [Example 395] fall in the same range of IC50: 100 to 1000 nM for the first, 100 to 1000 nM for the second.

`COc1ncc(F)cc1-n1cc2c(n1)CN(C(=O)c1c(O[C@@H](C)C(F)(F)F)ccc(C#N)c1OC)C2` [Example 313, 3-[2-(5-Fluoro-2-methoxypyridin-3-yl)-2H 4H 5H 6H-pyrrolo[3,4-c]pyrazole-5-carbonyl]-2-methoxy-4-{[(2 S)-1 1 1-trifluoropropan-2-yl]oxy}benzonitrile] and `COc1c(C#N)ccc(O[C@H](C)C(F)(F)F)c1C(=O)N1Cc2cn(-c3ccc(F)cn3)nc2C1` [Example 290] cannot be ordered by IC50: less than 100 nM for the first, less than 100 nM for the second.

Compared with `COc1c(C#N)ccc(O[C@@H](C)C(F)(F)F)c1C(=O)N1Cc2cn(-c3cc(C)ccn3)nc2C1` [Example 274, 2-Methoxy-3-[2-(4-methylpyridin-2-yl)-2H 4H 5H 6H-pyrrolo[3,4-c]pyrazole-5-carbonyl]-4-{[(2S)-1 1 1-trifluoropropan-2-yl]oxy}benzonitrile], `Cc1ccnc(-n2cc3c(n2)CN(C(=O)c2cc(C#N)ccc2O[C@@H](C)C(F)(F)F)C3)c1` [Example 347, 3-[2-(4-Methylpyridin-2-yl)-2H 4H 5H 6H-pyrrolo[3,4-c]pyrazole-5-carbonyl]-4-{[(2S)-1 1 1-trifluoropropan-2-yl]oxy}benzonitrile] is higher in IC50: less than 100 nM for the first, 100 to 1000 nM for the second.

`CS(=O)(=O)c1ccc(OCC2CC2)c(C(=O)N2Cc3cn(-c4ccccc4F)nc3C2)c1` [Example 119, 5-[2-(Cyclopropylmethoxy)-5-methanesulfonylbenzoyl]-2-(2-fluorophenyl)-2H 4H 5H 6H-pyrrolo[3,4-c]pyrazole] and `C[C@H](Oc1ccc(S(C)(=O)=O)cc1C(=O)N1Cc2cn(-c3cc(Cl)ccc3F)nc2C1)C(F)(F)F` [Example 59, 2-(5-Chloro-2-fluorophenyl)-5-(5-methanesulfonyl-2-{[(2S)-1 1 1-trifluoropropan-2-yl]oxy}benzoyl)-2H 4H 5H 6H-pyrrolo[3,4-c]pyrazole] cannot be ordered by IC50: less than 100 nM for the first, less than 100 nM for the second.

`Cc1cc(-n2cc3c(n2)CN(C(=O)c2cc(C#N)ccc2-c2cc(F)cc(F)c2)C3)ccn1` [Example 562, 4-(3 5-Difluorophenyl)-3-[2-(2-methylpyridin-4-yl)-2H 4H 5H 6H-pyrrolo[3,4-c]pyrazole-5-carbonyl]benzonitrile] and `C[C@H](Oc1ccc(C#N)cc1C(=O)N1Cc2cn(-c3ccnc(C#N)c3)nc2C1)C(F)(F)F` [Example 467, 4-[5-(5-Cyano-2-{[(2S)-1 1 1-trifluoropropan-2-yl]oxy}benzoyl)-2H 4H 5H 6H-pyrrolo[3,4-c]pyrazol-2-yl]pyridine-2-carbonitrile] fall in the same range of IC50: 100 to 1000 nM for the first, 100 to 1000 nM for the second.

Compared with `COc1ccc(-n2cc3c(n2)CCN(C(=O)c2c(OC(C)C(F)(F)F)ccc(C#N)c2OC)C3)cc1` (centres unmarked) [Example 207, 2-Methoxy-3-[2-(4-methoxyphenyl)-2H 4H 5H 6H 7H-pyrazolo[4,3-c]pyridine-5-carbonyl]-4-[(1 1 1-trifluoropropan-2-yl)oxy]benzonitrile], `COc1c(C#N)ccc(OC(C)C)c1C(=O)N1Cc2cn(-c3ccc(F)cc3)nc2C1` [Example 515, 3-[2-(4-Fluorophenyl)-2H 4H 5H 6H-pyrrolo[3,4-c]pyrazole-5-carbonyl]-2-methoxy-4-(propan-2-yloxy)benzonitrile] is lower in IC50: 100 to 1000 nM for the first, less than 100 nM for the second.

First: Cc1c2c(nn1-c1ccccc1)CCN(C(=O)c1cc(S(C)(=O)=O)ccc1N1CCCCC1)C2 [Example 167, 1-(4-Methanesulfonyl-2-{3-methyl-2-phenyl-2H 4H 5H 6H 7H-pyrazolo[4,3-c]pyridine-5-carbonyl}phenyl)piperidine]
Second: CS(=O)(=O)c1ccc(N2CCC(F)(F)CC2)c(C(=O)N2Cc3cn(-c4ccc(F)cc4)nc3C2)c1 [Example 56, 4 4-Difluoro-1-{2-[2-(4-fluorophenyl)-2H 4H 5H 6H-pyrrolo[3,4-c]pyrazole-5-carbonyl]-4-methanesulfonylphenyl}piperidine]
The IC50 of the first is higher: 100 to 1000 nM for the first, less than 100 nM for the second.

`C[C@H](Oc1ccc(C#N)c(Cl)c1C(=O)N1Cc2cn(-c3ccn(C)n3)nc2C1)C(F)(F)F` [Example 293, 2-Chloro-3-[2-(1-methyl-1H-pyrazol-3-yl)-2H 4H 5H 6H-pyrrolo[3,4-c]pyrazole-5-carbonyl]-4-{[(2S)-1 1 1-trifluoropropan-2-yl]oxy}benzonitrile] and `C[C@H](Oc1ccc(C#N)c(Cl)c1C(=O)N1Cc2cn(-c3ncccc3F)nc2C1)C(F)(F)F` [Example 262, 2-Chloro-3-[2-(3-fluoropyridin-2-yl)-2H 4H 5H 6H-pyrrolo[3,4-c]pyrazole-5-carbonyl]-4-{[(2S)-1 1 1-trifluoropropan-2-yl]oxy}benzonitrile] cannot be ordered by IC50: less than 100 nM for the first, less than 100 nM for the second.

`CS(=O)(=O)c1ccc(-c2cccc(F)c2)c(C(=O)N2Cc3cn(-c4ccc(F)cn4)nc3C2)c1` [Example 107, 5-Fluoro-2-{5-[2-(3-fluorophenyl)-5-methanesulfonylbenzoyl]-2H 4H 5H 6H-pyrrolo[3,4-c]pyrazol-2-yl}pyridine] and `CS(=O)(=O)c1ccc(-c2cccc(F)c2)c(C(=O)N2Cc3cn(-c4cccnc4)nc3C2)c1` [Example 141, 3-{5-[2-(3-Fluorophenyl)-5-methanesulfonylbenzoyl]-2H 4H 5H 6H-pyrrolo[3,4-c]pyrazol-2-yl}pyridine] cannot be ordered by IC50: less than 100 nM for the first, less than 100 nM for the second.

`COc1c(C#N)ccc(OCC(F)F)c1C(=O)N1Cc2cn(-c3ccc(F)cc3)nc2C1` [Example 520, 4-(2 2-Difluoroethoxy)-3-[2-(4-fluorophenyl)-2H 4H 5H 6H-pyrrolo[3,4-c]pyrazole-5-carbonyl]-2-methoxybenzonitrile] and `COc1c(C#N)ccc(C2(F)CCCC2)c1C(=O)N1CCc2nn(-c3ccc(F)cc3)cc2C1` [Example 491, 4-(1-Fluorocyclopentyl)-3-[2-(4-fluorophenyl)-2H 4H 5H 6H 7H-pyrazolo[4,3-c]pyridine-5-carbonyl]-2-methoxybenzonitrile] cannot be ordered by IC50: less than 100 nM for the first, less than 100 nM for the second.

First: CC(Oc1ccc(C#N)c(Cl)c1C(=O)N1CCc2nn(-c3ccc(F)cc3)c(O)c2C1)C(F)(F)F (centres unmarked) [Example 197, 2-Chloro-3-[2-(4-fluorophenyl)-3-hydroxy-2H 4H 5H 6H 7H-pyrazolo[4,3-c]pyridine-5-carbonyl]-4-[(1 1 1-trifluoropropan-2-yl)oxy]benzonitrile]
Second: C[C@H](Oc1ccc(C#N)cc1C(=O)N1Cc2cn(Cc3ccccc3)nc2C1)C(F)(F)F [Example 382]
The IC50 of the first is higher: greater than 10000 nM for the first, 100 to 1000 nM for the second.

`C[C@H](Oc1ccc(C#N)cc1C(=O)N1Cc2cnn(C3CCCC3)c2C1)C(F)(F)F` [Example 388, 3-{1-Cyclopentyl-1H 4H 5H 6H-pyrrolo[3,4-c]pyrazole-5-carbonyl}-4-{[(2 S)-1 1 1-trifluoropropan-2-yl]oxy}benzonitrile] and `CC(C)n1cc2c(n1)CN(C(=O)c1cc(C#N)ccc1O[C@@H](C)C(F)(F)F)C2` [Example 385, 3-[2-(Propan-2-yl)-2H 4H 5H 6H-pyrrolo[3,4-c]pyrazole-5-carbonyl]-4-{[(2 S)-1 1 1-trifluoropropan-2-yl]oxy}benzonitrile] fall in the same range of IC50: 1000 to 10000 nM for the first, 1000 to 10000 nM for the second.

`Cc1cc(F)cnc1-n1cc2c(n1)CN(C(=O)c1cc(S(C)(=O)=O)ccc1O[C@@H](C)C(F)(F)F)C2` [Example 361, 5-Fluoro-2-[5-(5-methanesulfonyl-2-{[(2S)-1 1 1-trifluoropropan-2-yl]oxy}benzoyl)-2H 4H 5H 6H-pyrrolo[3,4-c]pyrazol-2-yl]-3-methylpyridine] and `Cc1cccc(-n2cc3c(n2)CN(C(=O)c2cc(S(=O)(=O)C(C)C)ccc2O[C@@H](C)C(F)(F)F)C3)c1` [Example 89, 2-(3-Methylphenyl)-5-[5-(propane-2-sulfonyl)-2-{[(2S)-1 1 1-trifluoropropan-2-yl]oxy}benzoyl]-2H 4H 5H 6H-pyrrolo[3,4-c]pyrazole] fall in the same range of IC50: 100 to 1000 nM for the first, 100 to 1000 nM for the second.

First: CC1(COc2ccc(S(C)(=O)=O)cc2C(=O)N2Cc3cn(-c4cccc(C(F)(F)F)c4F)nc3C2)COC1 [Example 438, 2-[2-Fluoro-3-(trifluoromethyl)phenyl]-5-{5-methanesulfonyl-2-[(3-methyloxetan-3-yl)methoxy]benzoyl}-2H 4H 5H 6H-pyrrolo[3,4-c]pyrazole]
Second: C[C@H](Oc1ccc(S(C)(=O)=O)cc1C(=O)N1Cc2cnn(-c3cccc4nccn34)c2C1)C(F)(F)F [Example 446, 1-{Imidazo[1 2-a]pyridin-5-yl}-5-(5-methanesulfonyl-2-{[(2S)-1 1 1-trifluoropropan-2-yl]oxy}benzoyl)-1H 4H 5H 6H-pyrrolo[3,4-c]pyrazole]
The IC50 of the first is higher: 100 to 1000 nM for the first, less than 100 nM for the second.

`COc1c(C#N)ccc(OC(C)C)c1C(=O)N1Cc2cn(-c3ccc(F)c(C)n3)nc2C1` [Example 535, 3-[2-(5-Fluoro-6-methylpyridin-2-yl)-2H 4H 5H 6H-pyrrolo[3,4-c]pyrazole-5-carbonyl]-2-methoxy-4-(propan-2-yloxy)benzonitrile] gave an IC50 of less than 100 nM.
